In brackets after ≈: the same amount, converted by molar mass. Activity calls are given as the source filed them. The calls are words filed in the database; no cut-off is given here.
Tests used:
MDA-MB-468 = experiment: Antiproliferative activity against human MDA-MB-468 cells assessed as inhibition of cell viability at 1 uM incubated for 72 hrs by CCK-8 assay; assay type: functional, cell-based
Hep 3B2 = experiment: Antiproliferative activity against human Hep3B cells assessed as inhibition of cell viability at 1 uM incubated for 72 hrs by MTT assay; assay type: functional, cell-based
U-87 MG = experiment: Antiproliferative activity against human U87 cells assessed as inhibition of cell viability at 1 uM incubated for 72 hrs by MTT assay; assay type: functional, cell-based; details: U-87MG ATCC
L02 = experiment: Cytotoxicity against human L02 cells assessed as inhibition of cell viability at 1 uM incubated for 72 hrs by MTT assay; assay type: toxicity, cell-based; details: l02, 72 h
MDA-MB-231 [1] = experiment: Inhibition of colony formation in human MDA-MB-231 cells at 20 nM incubated for 14 days by crystal violet staining based assay; assay type: functional, cell-based; details: time 14.0 day
MDA-MB-231 [2] = experiment: Induction of ferroptosis in human MDA-MB-231 cells assessed as cell viability at 1 uM incubated for 72 hrs in presence of autophagy inhibitor, 3-MA by MTT assay; assay type: functional, cell-based
MDA-MB-231 [3] = experiment: Induction of ferroptosis in human MDA-MB-231 cells assessed as cell viability incubated for 72 hrs in presence of deferoxamine by MTT assay; assay type: functional, cell-based; details: MDA-MB-231, 72 h
MDA-MB-231 [4] = experiment: Induction of ferroptosis in human MDA-MB-231 cells assessed as increase in intracellular lipid peroxidase by measuring MDA content at 5 to 20 nM incubated for 8 hrs by C11-BODIPY-581/591 staining based flow cytometry analysis; assay type: functional, cell-based; details: dose 5-20 nM
MDA-MB-231 [5] = experiment: Induction of ferroptosis-mediated morphological changes in human MDA-MB-231 cells assessed as decreased or absence of mitochondrial crests at 20 nM incubated for 6 hrs by TEM analysis; assay type: functional, cell-based
[6] = biological target: T1, Phospholipid hydroperoxide glutathione peroxidase GPX4 (Homo sapiens, UniProt P36969); experiment: Inhibition of GPX4 (unknown origin) incubated for 1 hrs in presence of glutathione and glutathione reductase by microplate reader analysis
T1 sequence (P36969 whole entry): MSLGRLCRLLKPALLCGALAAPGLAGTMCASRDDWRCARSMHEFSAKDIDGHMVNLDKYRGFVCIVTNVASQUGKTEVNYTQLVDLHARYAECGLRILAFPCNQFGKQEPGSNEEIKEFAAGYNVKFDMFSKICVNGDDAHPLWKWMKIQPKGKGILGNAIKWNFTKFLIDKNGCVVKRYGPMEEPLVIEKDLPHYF

[7] = Toxicity in immunodeficient BALB/c mouse assessed as change in ALT level at 20 mg/kg, ip for 14 days by biochemical analysis; assay type: organism-based; details: in vivo, 336 h, time 14 day
MDA-MB-231 [8] = experiment: Induction of ferroptosis-mediated antitumor activity against human MDA-MB-231 cells xenografted in immunodeficient BALB/C mouse assessed as reduction in GPX4 level in tumor tissue at 5 to 20 mg/kg,ip for 21 days by Western blot analysis; assay type: functional, organism-based; details: dose 5-20 mg/kg, time 21.0 day
MDA-MB-231 [9] = experiment: Antitumor activity against human MDA-MB-231 cells xenografted in immunodeficient BALB/c mouse assessed as inhibition of tumor cell proliferation at 20 mg/kg,ip for 21 days consecutively every day by Ki67 staining based immunohistochemical analysis; assay type: functional, organism-based; details: time 21.0 day
[10] = Toxicity in immunodeficient BALB/c mouse assessed as bone marrow suppression by measuring WBC level at 20 mg/kg, ip for 14 days by whole blood analysis; assay type: organism-based; details: in vivo, 336 h, time 14 day
[11] = Toxicity in immunodeficient BALB/c mouse assessed as change in CREA level at 20 mg/kg, ip for 14 days by biochemical analysis; assay type: organism-based; details: in vivo, 336 h, time 14 day
[12] = Toxicity in immunodeficient BALB/c mouse assessed as change in LDH level at 20 mg/kg, ip for 14 days by biochemical analysis; assay type: organism-based; details: in vivo, 336 h, time 14 day
[13] = Metabolic stability in human liver microsomes assessed as half life at 1 uM incubated upto 60 mins in presence of NADPH by LC-MS/MS analysis; assay type: ADME, Microsome
[14] = Solubility of compound at pH 7.4; assay type: physicochemical; details: buffer
[15] = biological target: T2, Phospholipid hydroperoxide glutathione peroxidase GPX4 (Homo sapiens) (UniProt P36969); experiment: Binding affinity to GPX4 in human MDA-MB-231 cells assessed as decrease in apprent aggregation temperature at 1 uM incubated for 2 hrs by CESTA analysis (Rvb=58.3 +/- 0.7 degreeC); assay type: cell-based
T2 sequence (whole entry): T1 sequence (P36969 whole entry)

[16] = biological target: T2, Phospholipid hydroperoxide glutathione peroxidase GPX4 (Homo sapiens); experiment: Binding affinity to GPX4 (unknown origin) at Cys66 residue assessed as change in mass of single charged y4+ ion at 100 uM incubated for 1.5 hrs by SDS-PAGE based LC-MS/MS analysis
[17] = biological target: T2, Phospholipid hydroperoxide glutathione peroxidase GPX4 (Homo sapiens); experiment: Binding affinity to GPX4 (unknown origin) at Cys66 residue assessed as change in mass of single charged b4+ ion at 100 uM incubated for 1.5 hrs by SDS-PAGE based LC-MS/MS analysis
[18] = biological target: T2, Phospholipid hydroperoxide glutathione peroxidase GPX4 (Homo sapiens); experiment: Binding affinity to GPX4 (unknown origin) at Cys66 residue assessed as change in mass of single charged y3+ ion at 100 uM incubated for 1.5 hrs by SDS-PAGE based LC-MS/MS analysis
[19] = biological target: T2, Phospholipid hydroperoxide glutathione peroxidase GPX4 (Homo sapiens); experiment: Binding affinity to GPX4 (unknown origin) at Cys66 residue assessed as change in mass of single charged y5+ ion at 100 uM incubated for 1.5 hrs by SDS-PAGE based LC-MS/MS analysis
[20] = biological target: T2, Phospholipid hydroperoxide glutathione peroxidase GPX4 (Homo sapiens); experiment: Binding affinity to GPX4 (unknown origin) at Cys66 residue assessed as change in mass of single charged y6+ ion at 100 uM incubated for 1.5 hrs by SDS-PAGE based LC-MS/MS analysis
MDA-MB-231 [21] = experiment: Induction of ferroptosis in siRNA mediated GPX4 knockdown human MDA-MB-231 cells with assessed as intracellular lipid peroxidase at 20 nM incubated for 8 hrs by C11-BODIPY-581/591 staining based confocal laser microscopy; assay type: functional, cell-based
MDA-MB-231 [22] = experiment: Induction of ferroptosis in siRNA mediated GPX4 knockdown human MDA-MB-231 cells with assessed as change in xCT protein expression level at 20 nM incubated for 8 hrs by Western blot analysis; assay type: functional, cell-based
MDA-MB-231 [23] = experiment: Induction of ferroptosis in human MDA-MB-231 cells with assessed as upregulation of GPX4 protein expression level at 5 to 20 nM incubated for <6 hrs by Western blot analysis; assay type: functional, cell-based; details: dose 5-20 nM
MDA-MB-231 [24] = experiment: Induction of ferroptosis in human MDA-MB-231 cells with assessed as reduction in cell viability at 5 to 20 nM incubated for 4 to 10 hrs by MTT assay; assay type: functional, cell-based; details: dose 5-20 nM, time 4-10 hrs
[25] = Half life in rat at 10 mg/kg, ip and measured upto 24 hrs by LC-MS/MS analysis; assay type: ADME, organism-based; details: in vivo
[26] = Cmax in rat at 10 mg/kg, ip and measured upto 24 hrs by LC-MS/MS analysis; assay type: ADME, organism-based; design: time < 24 hrs, dose 10 mg/kg, route ip; details: in vivo
[27] = AUCt in rat at 10 mg/kg, ip and measured upto 24 hrs by LC-MS/MS analysis; assay type: ADME, organism-based; design: dose 10 mg/kg, time < 24 hrs, route ip; details: in vivo
[28] = MRT(t) in rat at 10 mg/kg, ip and measured upto 24 hrs by LC-MS/MS analysis; assay type: ADME, organism-based; details: in vivo
[29] = Clearance in rat at 10 mg/kg, ip and measured upto 24 hrs by LC-MS/MS analysis; assay type: ADME, organism-based; details: in vivo

SMILES	Activity (MDA-MB-468)	Activity (Hep 3B2)	Activity (U-87 MG)	Activity (L02)	inhibition (MDA-MB-231 [1])	Activity (MDA-MB-231 [2])	IC50 (MDA-MB-231 [3])	Activity (MDA-MB-231 [4])	Activity (MDA-MB-231 [5])	IC50 [6]	Activity [7]	Activity (MDA-MB-231 [8])	Activity (MDA-MB-231 [9])	Activity [11]	Activity [12]	half-life at 1 µM [13]	solubility [14]	also measured
COc1cc(N(C(=O)CBr)c2ccc3c(c2)OCCO3)cc(OC)c1F	Active	inactive	inactive	Non-Toxic	Active	inactive	1850 nM	Dose-Dependent Effect	Active	130 nM	Toxic	Active	Active	Toxic	Toxic	0.79 min	3.3 µg/mL (≈ 7.74 µM)	Activity [10]: Toxic
COc1cc(N(C(=O)CCl)c2ccc3c(c2)OCCO3)cc(OC)c1F	Active	inactive	inactive	Non-Toxic	Active	inactive	2570 nM	Dose-Dependent Effect	Active	120 nM	Toxic	Active	Active	Toxic	Toxic	3.34 min	3.63 µg/mL (≈ 9.51 µM)	T [15]: 51.8 °C; Activity [16]: inactive; Activity [17]: inactive; Activity [18]: inactive; Activity [19]: inactive; Activity [20]: inactive; Activity (MDA-MB-231 [21]): Active; Activity (MDA-MB-231 [22]): inactive; Activity (MDA-MB-231 [23]): Active; Activity (MDA-MB-231 [24]): Dose-Dependent Effect; t1/2 [25]: 114 min; Cmax [26]: 5205 ng/mL; AUCt [27]: 12100 ng·h/mL; MRT last at 24 h [28]: 103 min; CL [29]: 13.8 mL/min/kg
